Data: US10174331B2, “Methods and compositions for nuclease-mediated targeted integration of transgenes” (Sangamo BioSciences, Inc., priority 2012, dated 2019)

Assays:
[1] = test system: wheat cv. Bobwhite MPB26RH, wild-type and AHAS(P197S) transgenic events; assay: Basal tolerance to sulfometuron methyl at plant rooting stage; type: in vivo, Triticum aestivum; conditions: wild-type donor wheat line; concentrations higher than 400 nM; 3 weeks
Experimental: The basal tolerance of the wild-type donor wheat line to sulfometuron methyl at the plant rooting stage was determined as follows: Scutella of immature zygotic embryos were isolated and placed in 10 cm PETRI™ dishes containing CIM medium. Somatic embryogenic callus was allowed to form by incubating at 24° C. in the dark for 4 weeks. The SEC was transferred to 10 cm PETRI™ dishes containing DRM medium and incubated for 2 weeks at 24° C. under a 16/8 (light/dark) hour photoperiod to allow plant regeneration to take place. Regenerated plants were transferred to 10 cm PETRI™ dishes containing RM medium supplemented with 0, 100, 200, 250, 300, 400, 500, 1000 and 2000 nM sulfometuron methyl, respectively. Ten regenerated plants were placed in each PETRI™ dish. […] After incubation for 3 weeks at 24° C. under a 16/8 (light/dark) hour photoperiod in a growth room, the root formation response was recorded.
The basal tolerance of transgenic wheat events with randomly integrated, low-copy (≤3) T-DNA expressing the AHAS(P197S) mutation to sulfometuron methyl at the plant rooting stage was determined as follows: Four independent transgenic events were randomly selected and multiplied in vitro by sub-culturing on multiplication medium. […] After incubation for 2 weeks at 24° C. under a 16/8 (light/dark) hour photoperiod in a growth room, the root formation response was recorded.

[2] = test system: scutella of wheat cv. Bobwhite MPB26RH; assay: Basal tolerance to sulfometuron methyl at callus induction stage; type: cell-based, Triticum aestivum; conditions: 100 nM, 4 weeks
Experimental: A series of experiments were performed to determine optimal selection conditions for regenerating wheat plants expressing the AHAS(P197S) mutation conferring tolerance to sulfonylurea class herbicides. These experiments were based on testing the basal tolerance of the wild-type donor wheat line cv. Bobwhite MPB26RH (P197/P197 genotype, which confers susceptibility to sulfonylureas) at the callus induction, plant regeneration and rooting stages of an established wheat transformation system. Similar experiments were performed to determine the basal tolerance of transgenic cv. Bobwhite MPB26RH events that had randomly integrated T-DNA expressing the AHAS(P197) mutation, which confers tolerance to sulfonylurea selection agents.
The basal tolerance of the wild-type donor wheat line to sulfometuron methyl at the callus induction stage was determined as follows: Scutella of immature zygotic embryos were isolated, as previously described, and placed in 10 cm PETRI™ dishes containing CIM medium supplemented with 0, 100, 500, 1000, 1500 and 2000 nM sulfometuron methyl, respectively. Twenty scutella were placed in each PETRI™ dish. A total of 60 scutella were tested at each sulfometuron methyl concentration. After incubation at 24° C. in the dark for 4 weeks, the amount of somatic embryogenic callus formation (SEC) at each sulfometuron methyl concentration was recorded. […]

[3] = test system: wheat cv. Bobwhite MPB26RH; assay: Basal tolerance to sulfometuron methyl at plant regeneration stage; type: in vivo, Triticum aestivum; conditions: wild-type cv. Bobwhite MPB26RH; 2000 nM; 2 weeks
Experimental: The basal tolerance of the wild-type donor wheat line to sulfometuron methyl at the plant regeneration stage was determined as follows: Scutella of immature zygotic embryos from the donor wheat line were isolated and placed in 10 cm PETRI™ dishes containing CIM medium. Somatic embryogenic callus was allowed to form by incubating at 24° C. in the dark for 4 weeks. The SEC was transferred to 10 cm PETRI™ dishes containing DRM medium supplemented with 0, 100, 500, 1000, 1500, 2000, 2500 and 3000 nM sulfometuron methyl, respectively. Twenty CIM were placed in each PETRI™ dish. A total of 60 CIM were tested for basal tolerance response at each sulfometuron methyl concentration. After incubation for 2 weeks at 24° C. under a 16/8 (light/dark) hour photoperiod in a growth room, the regeneration response was recorded.

[4] = test system: wheat cv. Bobwhite MPB26RH and cv. Clearfield Janz; assay: Basal tolerance to IMAZAMOX at plant regeneration stage; type: in vivo, Triticum aestivum
Experimental: The basal tolerance of the donor wheat line cv. Bobwhite MPB26RH to IMAZAMOX® at the plant regeneration stage was determined as follows: Scutella of immature zygotic embryos from the donor wheat line were isolated as described previously and placed in 10 cm PETRI™ dishes containing CIM medium. Somatic embryogenic callus was allowed to form by incubating at 24° C. in the dark for 4 weeks. The SEC was transferred to 10 cm PETRI™ dishes containing DRM medium supplemented with 0, 100, 200, 300, 400, 500 and 1000 nM IMAZAMOX® respectively. Twenty CIM were placed in each PETRI™ dish. A total of 60 CIM were tested for basal tolerance response at each IMAZAMOX® concentration. After incubation for 2 weeks at 24° C. under a 16/8 (light/dark) hour photoperiod in a growth room, the regeneration response was recorded.
The basal tolerance of the cv. Clearfield Janz (S653/S653) genotype and basal resistance of the cv. Clearfield Janz (N653/N653) genotype to IMAZAMOX® at the plant regeneration stage was determined using a modified approach, as cv. […] Seed for each cv. Clearfield Janz genotype was germinated using the aseptic approach described above for producing wheat mesophyll protoplasts. […] After incubation for 3 weeks at 24° C. under a 16/8 (light/dark) hour photoperiod in a growth room, the growth response was recorded. […]

[5] = test system: scutella of wheat cv. Bobwhite MPB26RH and cv. Clearfield Janz; assay: Basal tolerance to IMAZAMOX at callus induction stage; type: cell-based, Triticum aestivum
Experimental: A series of experiments were performed to determine optimal selection conditions for regenerating AHAS edited wheat plants. These experiments were based on testing the basal tolerance to IMAZAMOX™ of the donor wheat line cv. Bobwhite MPB26RH(S653/S653 genotype) at the callus induction, plant regeneration and rooting stages of an established wheat transformation system. Similar experiments were performed to determine the basal tolerance and resistance of cv. Clearfield Janz genotypes carrying the different doses of the S653N mutation; i.e., plants with N653/N653 and S653/S653 genotypes.
The basal tolerance of the donor wheat line cv. Bobwhite MPB26RH and basal resistance of cv. Clearfield Janz (N653/N653) genotype to IMAZAMOX® at the callus induction stage was determined as follows: Scutella of immature zygotic embryos from each wheat line were isolated as described previously and placed in 10 cm PETRI™ dishes containing CIM medium supplemented with 0, 50, 100, 200, 300, 400 and 500 nM IMAZAMOX® respectively. Twenty scutella were placed in each PETRI™ dish. A total of 60 scutella from each of the donor wheat line cv. Bobwhite MPB26RH and cv. […] After incubation at 24° C. in the dark for 4 weeks, the amount of somatic embryogenic callus formation (SEC) at each IMAZAMOX® concentration was recorded. […]

Structure (SMILES)	root formation compared to untreated samples [1]	reduction of SEC formation compared to untreated samples [2]	reduction of plant regeneration compared to untreated samples [3]	reduction of plant regeneration compared to untreated samples ([4]; cv. Bobwhite MPB26RH, 200 nM, 2 weeks)	concentration that had to be exceeded before plant growth was strongly suppressed ([4]; cv. Clearfield Janz (N653/N653), 3 weeks)	reduction of SEC formation compared to untreated samples ([5]; cv. Bobwhite MPB26RH, 100 nM, 4 weeks)	callus formation relative to the untreated control ([5]; cv. Clearfield Janz (N653/N653), any concentration tested (50-500 nM))
COC(=O)c1ccccc1S(=O)(=O)NC(=O)Nc1nc(C)cc(C)n1 [sulfometuron methyl]	severely inhibited	about 70%	about 80%	–	–	–	–
COCc1cnc(C2=NC(C)(C(C)C)C(=O)N2)c(C(=O)O)c1 (stereo not shown) [IMAZAMOX]	–	–	–	about 80%	exceeded 2,000 nM	about 70%	unaffected
